Reference: ChEMBL document CHEMBL3751844, “Novel juglone and plumbagin 5-O derivatives and their in vitro growth inhibitory activity against apoptosis-resistant cancer cells” (Bioorg Med Chem Lett, 2016)
Activity calls are given as the source filed them. No cut-off for these calls is given here.

Experiments:
SK-MEL-28 = test: Growth inhibition of human SK-MEL-28 cells by MTT assay; format: functional, cell-based
MCF7 = test: Growth inhibition of human MCF7 cells by MTT assay; format: functional, cell-based
[1] = Growth inhibition of mouse B16F10 cells by MTT assay; format: functional, cell-based; details: B16-F10
[2] = Growth inhibition of human Hs683 cells by MTT assay; format: functional, cell-based; details: Hs 683
[3] = Growth inhibition of human U373 cells by MTT assay; format: functional, cell-based, U-373MG ATCC; details: U373 MG
A549 = test: Growth inhibition of human A549 cells by MTT assay; format: functional, cell-based
[4] = Chemical stability of the compound in MEM and RPMI assessed as compound recovery after 72 hrs in presence of foetal calf serum; format: physicochemical; details: cattle, MEM and RPMI cell culture media with foetal calf serum; read-out: Drug recovery
U-373MG ATCC [5] = test: Cytotoxicity against human U373 cells at 8 uM after 72 hrs by video microscopic analysis; format: functional, cell-based
U-373MG ATCC [6] = test: Cytotoxicity against human U373 cells at 5 uM after 72 hrs by video microscopic analysis; format: functional, cell-based
U-373MG ATCC [7] = test: Cytotoxicity against human U373 cells at 17 uM after 72 hrs by video microscopic analysis; format: functional, cell-based

Row | SMILES | IC50 (SK-MEL-28) | IC50 (MCF7) | IC50 [1] | IC50 [2] | IC50 [3] | IC50 (A549) | remaining at 72 h [4] | Activity (U-373MG ATCC [5]) | Activity (U-373MG ATCC [6]) | Activity (U-373MG ATCC [7])
1 | CCOc1cccc2c1C(=O)C=CC2=O | 9 µM | 24 µM | 5 µM | 23 µM | 29 µM | 19 µM | – | – | – | –
2 | CC(C)=CCOc1cccc2c1C(=O)C=CC2=O | 5 µM | 16 µM | 7 µM | 7 µM | 15 µM | 6 µM | – | – | – | –
3 | CCCCCCCCCCCCCCCCCC(=O)Oc1cccc2c1C(=O)C=C(C)C2=O | 91 µM | > 100 µM | 46 µM | > 100 µM | > 100 µM | > 100 µM | > 95% | – | – | –
4 | C=CCOc1cccc2c1C(=O)C=C(C)C2=O | 3 µM | 3 µM | 1 µM | 3 µM | 3 µM | 3 µM | – | – | – | –
5 | CCCCCCCC/C=C\CCCCCCCC(=O)Oc1cccc2c1C(=O)C=CC2=O | 67 µM | 61 µM | 61 µM | 77 µM | 91 µM | 77 µM | > 95% | – | – | –
6 | C=CCOc1cccc2c1C(=O)C=CC2=O | 24 µM | 21 µM | 4 µM | 19 µM | 32 µM | 26 µM | – | – | – | –
7 | COc1cccc2c1C(=O)C=CC2=O | 30 µM | 39 µM | 10 µM | 6 µM | 9 µM | 9 µM | – | – | – | –
8 | CC(=O)Oc1cccc2c1C(=O)C=C(C)C2=O | 3 µM | 4 µM | 0.4 µM | 5 µM | 5 µM | 5 µM | > 95% | – | – | –
9 | CCCCCCCCCCCCCC(=O)Oc1cccc2c1C(=O)C=C(C)C2=O | 18 µM | 22 µM | 3 µM | 9 µM | 16 µM | 12 µM | > 95% | – | – | –
10 | CCOc1cccc2c1C(=O)C=C(C)C2=O | 3 µM | 6 µM | 3 µM | 2 µM | 24 µM | 3 µM | – | – | – | –
11 | CC(=O)Oc1cccc2c1C(=O)C=CC2=O | 23 µM | 8 µM | 7 µM | 23 µM | 8 µM | 23 µM | > 95% | Active | – | –
12 | CCCCCCCCCCCCCCCC(=O)Oc1cccc2c1C(=O)C=CC2=O | > 100 µM | 86 µM | 53 µM | > 100 µM | > 100 µM | > 100 µM | > 95% | – | – | –
13 | CC(C)=CCC/C(C)=C/COc1cccc2c1C(=O)C=C(C)C2=O | 31 µM | 40 µM | 30 µM | 22 µM | 59 µM | 23 µM | – | – | – | –
14 | CC(C)=CCOc1cccc2c1C(=O)C=C(C)C2=O | 7 µM | 3 µM | 1 µM | 3 µM | 7 µM | 4 µM | – | – | – | –
15 | CCCCCCCCCCCCCCCC(=O)Oc1cccc2c1C(=O)C=C(C)C2=O | 73 µM | 57 µM | 22 µM | 33 µM | 48 µM | 30 µM | > 95% | – | – | –
16 | CCCCCCCCCCCC(=O)Oc1cccc2c1C(=O)C=C(C)C2=O | 77 µM | 29 µM | 3 µM | 17 µM | 16 µM | 22 µM | > 95% | – | – | –
17 | CCCCCCCCCCCCCCCCCC(=O)Oc1cccc2c1C(=O)C=CC2=O | 18 µM | 30 µM | 19 µM | 67 µM | 65 µM | 67 µM | > 95% | – | – | –
18 | CC(C)=CCC/C(C)=C/COc1cccc2c1C(=O)C=CC2=O | > 100 µM | > 100 µM | > 100 µM | 67 µM | > 100 µM | 67 µM | – | – | – | –
19 | CCCCCCCCCCCCCC(=O)Oc1cccc2c1C(=O)C=CC2=O | 33 µM | 30 µM | 27 µM | 36 µM | 30 µM | 36 µM | > 95% | – | – | –
20 | CCCCCCCCCCCC(=O)Oc1cccc2c1C(=O)C=CC2=O | 15 µM | 24 µM | 8 µM | 29 µM | 18 µM | 29 µM | > 95% | – | – | –
21 | CC1=CC(=O)c2c(O)cccc2C1=O [PLUMBAGIN] | 5 µM | 3 µM | 1 µM | 4 µM | 5 µM | 3 µM | – | – | Active | –
22 | COc1cccc2c1C(=O)C=C(C)C2=O | 5 µM | 5 µM | 2 µM | 3 µM | 5 µM | 4 µM | – | – | Active | –
23 | O=C1C=CC(=O)c2c(O)cccc21 [JUGLONE] | 7 µM | 13 µM | 6 µM | 7 µM | 17 µM | 7 µM | – | – | – | Active
24 | CCCCCCCC/C=C\CCCCCCCC(=O)Oc1cccc2c1C(=O)C=C(C)C2=O | 31 µM | 57 µM | 22 µM | 35 µM | 62 µM | 36 µM | > 95% | – | – | –
